One experiment concerns the target T1, TgDHOD-VSSM (Toxoplasma gondii, UniProt Q8MXD1).
T1 sequence (Q8MXD1 178-592): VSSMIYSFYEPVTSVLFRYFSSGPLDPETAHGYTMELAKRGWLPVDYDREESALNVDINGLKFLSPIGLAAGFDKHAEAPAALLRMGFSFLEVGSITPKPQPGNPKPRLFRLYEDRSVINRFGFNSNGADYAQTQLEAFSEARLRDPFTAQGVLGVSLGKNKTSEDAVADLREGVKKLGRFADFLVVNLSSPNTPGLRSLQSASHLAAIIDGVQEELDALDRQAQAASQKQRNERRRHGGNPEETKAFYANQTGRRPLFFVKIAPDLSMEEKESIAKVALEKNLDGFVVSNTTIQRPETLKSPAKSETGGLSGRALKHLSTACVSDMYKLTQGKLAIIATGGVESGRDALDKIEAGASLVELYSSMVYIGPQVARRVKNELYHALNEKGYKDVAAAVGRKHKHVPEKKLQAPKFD
Description: Use of electron acceptors and substrate kinetics of TgDHOD-VSSM.

For a further experiment, the target named is TgDHOD (Toxoplasma gondii, UniProt Q8MXD1). As to the kind of experiment: Inhibition of recombinant TgDHOD-VSSM, DCIP reduction assay with QD. Particulars: for Effect on TgDHOD activity (in words): no concentration stated at the place; for Type of inhibition of TgDHOD (best fit): QD as variable substrate, saturating dihydroorotate, SigmaPlot12 fit; for Inhibition of TgDHOD (in words): inhibitor 1 mM, DCIP reduction assay with QD.

The subject of experiment [1] is PfDHOD. Conditions: read-out: PfDHOD IC50, cited from earlier work.
In experiment [2] the test system is HsDHOD. Particulars: read-out: HsDHOD IC50, cited from earlier work.
The subject of experiment [3] is PfDHOD. Particulars: read-out: Km for quinone, recombinant PfDHOD; cited from earlier work.
The subject of experiment [4] is HsDHOD. Conditions: read-out: Km for QD, HsDHOD; cited from earlier work.
The next experiment concerns human complex III. Particulars: read-out: IC50 for human complex III; cited from earlier work.
The test system of experiment [5] is Saccharomyces cerevisiae complex III. Particulars: read-out: IC50 for Saccharomyces cerevisiae complex III; cited from earlier work.
Setting [6] is: read-out: TgDHOD activity compared to the control.

“Also recorded” adds a separate entry of the source. Where two headings read alike, the source gives them in different places.

Consider `O=C1C(Cl)=CC(=Nc2ccc(O)cc2)C=C1Cl` [DCIP, 2,6 dichlorophenol-indophenol], for which the “kcat, background activity in the absence of ubiquinone” value on TgDHOD-VSSM (DCIP as only electron acceptor, 0.1 mM, 1 mM dihydroorotate) came out at 28.1 ± 0.7 s⁻¹.
For orientation: IC50 means the point on the concentration scale where inhibition reaches its midpoint. For `Cc1cc(Nc2cc(F)c(C(F)(F)F)c(F)c2)n2ncnc2n1` [DSM190, N-(3,5-difluoro-4-(trifluoromethyl)phenyl)-5-methyl-[1,2,4]triazolo[1,5-a]pyrimidin-7-amine], the “Effect on TgDHOD activity (in words)” value on TgDHOD is “poor inhibitor”. The IC50 in the experiment on PfDHOD [1] (ref 16 Gujjar et al., 2011) was 190 nM; with HsDHOD [2] (ref 16 Gujjar et al., 2011), more than 30000 nM.
On to `O=C(O)/C=C/C(=O)O` [Fumarate], for which, on TgDHOD-VSSM, the “Activity as electron acceptor for TgDHOD (in words)” value is “poor electron acceptor; also recorded: negligible activity”.
The Ki is a dissociation constant, usually derived from enzyme kinetics or from competition with a known ligand. Regarding `COc1ccccc1-c1ccc(NC(=O)C(C#N)=C(C)O)c(Cl)c1` [MD209, N-(3-chloro-2′-methoxybiphenyl-4-yl)-2-cyano-3-hydroxybut-2-enamide], at TgDHOD, the Ki worked out at 18000 nM and the “Type of inhibition of TgDHOD (best fit)” value is recorded as “partial mixed inhibition”. Also, the IC50 in the experiment with PfDHOD [1] (ref 17 Davies et al., 2009) was 8600 nM. For the same molecule, the IC50 with HsDHOD [2] (ref 17 Davies et al., 2009) was 200 nM.
With `CC(O)=C(C#N)C(=O)Nc1ccc(-c2cccc(Cl)c2Cl)cc1Cl` [MD249], on TgDHOD, the “Type of inhibition of TgDHOD (best fit)” value was “partial mixed inhibition”. The IC50 is 9900 nM in the experiment on PfDHOD [1] (ref 17 Davies et al., 2009) and 330 nM with HsDHOD [2] (ref 17 Davies et al., 2009).
The term Km denotes the substrate concentration at which the rate is half of its maximum. In the case of `CC1=CC(=O)c2ccccc2C1=O` [Menadione, 2-methyl-1,4-naphthoquinone], in the experiment on PfDHOD [3], the Km is 55 to 115 µM.
As to `COC1=C(OC)C(=O)C(C)=CC1=O` [Q0, 2,3-dimethoxy-5-methyl-1,4-benzoquinone], the Km in the experiment on PfDHOD [3] was 55 to 115 µM.
Regarding `CCCCCCCCCCC1=C(C)C(=O)C(OC)=C(OC)C1=O` [QD, 2,3-dimethoxy-5-methyl-6-decyl-1,4-benzoquinone], the Km in the experiment on HsDHOD [4] was 14 µM.
As to `O=C(CC(=O)C(F)(F)F)c1cccs1` [TTFA, 4,4,4-trifluoro-1-(thienyl)-1,3-butanedione], on TgDHOD, the “Inhibition of TgDHOD (in words)” value is “No significant inhibition” and the “Effect on TgDHOD activity (in words)” value was “not significantly affected; also recorded: no effect”.
Take `O=C1C(O)=C([C@H]2CC[C@H](c3ccc(Cl)cc3)CC2)C(=O)c2ccccc21` [atovaquone, trans-2-[4-(chlorophenyl)cyclohexyl]-3-hydroxy-1,4-naphthoquinone]: the 50% inhibitory concentration (IC50) in the experiment on human complex III is 400 nM; in experiment [5], 40 nM. Further, the “Effect on TgDHOD activity (in words)” value at TgDHOD was “not significantly affected”; on TgDHOD (listed as Atovaquone) it was “little effect”. Besides, the remaining activity at 100 µM on TgDHOD (setting [6]) was 80.6%.
Consider `Cc1c(-c2ccc(-c3ccccc3F)cc2)nc2ccc(F)cc2c1C(=O)O` [brequinar, 6-fluoro-2-(2′-fluoro-1,1-biphenyl-4-yl)-3-methyl-4-quinoline carboxylic acid], for which, at TgDHOD, the “Inhibition of TgDHOD (in words)” value was “No significant inhibition” and the “Effect on TgDHOD activity (in words)” value is “not significantly affected; also recorded: not efficient inhibitors”.
Regarding `COc1cc(-c2ccc(Nc3ccccc3C(=O)O)c(OC)c2)ccc1Nc1ccccc1C(=O)O` [redoxal, (2,2′-[3,3′-dimethoxy[1,1′-biphenyl]-4,4′-diyl]diimino)bis-benzoic acid], on TgDHOD, the “Effect on TgDHOD activity (in words)” value is reported as “not efficient inhibitors”.
For the molecule `Cc1cc(-n2c(=O)[nH]c(=O)n(C)c2=O)ccc1Oc1ccc(SC(F)(F)F)cc1` [toltrazuril, 1-(3-methyl-4(4′-trifluoromethylthiophenoxy)phenyl)-3-methyl-1,3,5-triazine-2,4,6-(1H,3H,5H)-trione], the “Effect on TgDHOD activity (in words)” value on TgDHOD was “little effect”. For the same molecule, the remaining activity at 500 µM on TgDHOD (setting [6]) was determined as 82.9%.
